Laboratory results reported in patent publication US9446127B2, “Compositions including androgen receptor degradation (ARD) enhancers and methods of prophylactic or therapeutic treatment of skin disorders and hair loss” (AndroScience Corporation, priority 2007, dated 2016).
Several values for one entry are separate records, joined by “and”; a condition that tells them apart may be missing. Identical values can stand only once.

Legend:
LNCaP cells = experiment: LNCaP cell growth assay (cell count); assay type: cell-based, human; conditions: 5 μM
Protocol: LNCaP cells express an endogenous mutant AR that is found in prostate cancer patients. This clinically relevant cell model was used to study ASC-J9's effect in suppressing prostate cancer cell growth. Cells were plated, at a density of approximate 6.5×10^4 cells/well, into 6-well tissue culture dishes. Two days later, the complete medium was aspired and 10% charcoal/dextran-treated (hormone depleted) serum-containing medium was added. Test compound, ASC-J9 was then added to the medium at a final concentration of 5 μM with or without 1 nM of DHT. For vehicle control, the same amount of DMSO was added into the medium. For the subsequent 5 days, the medium was aspired once per day, and replaced with fresh medium containing test compound and/or DHT. At designated times, a portion of cells was harvested by trypsinization, and cell count was performed using a hemacytometer.

androgen receptor (AR) [1] = target: T1, androgen receptor (AR) (Homo sapiens, UniProt P10275, T878A); experiment: Western blot analysis of AR expression in LNCaP cells; assay type: cell-based
T1 construct: endogenous in cells; host or cells: LNCaP
T1 sequence (P10275 1-920 T878A): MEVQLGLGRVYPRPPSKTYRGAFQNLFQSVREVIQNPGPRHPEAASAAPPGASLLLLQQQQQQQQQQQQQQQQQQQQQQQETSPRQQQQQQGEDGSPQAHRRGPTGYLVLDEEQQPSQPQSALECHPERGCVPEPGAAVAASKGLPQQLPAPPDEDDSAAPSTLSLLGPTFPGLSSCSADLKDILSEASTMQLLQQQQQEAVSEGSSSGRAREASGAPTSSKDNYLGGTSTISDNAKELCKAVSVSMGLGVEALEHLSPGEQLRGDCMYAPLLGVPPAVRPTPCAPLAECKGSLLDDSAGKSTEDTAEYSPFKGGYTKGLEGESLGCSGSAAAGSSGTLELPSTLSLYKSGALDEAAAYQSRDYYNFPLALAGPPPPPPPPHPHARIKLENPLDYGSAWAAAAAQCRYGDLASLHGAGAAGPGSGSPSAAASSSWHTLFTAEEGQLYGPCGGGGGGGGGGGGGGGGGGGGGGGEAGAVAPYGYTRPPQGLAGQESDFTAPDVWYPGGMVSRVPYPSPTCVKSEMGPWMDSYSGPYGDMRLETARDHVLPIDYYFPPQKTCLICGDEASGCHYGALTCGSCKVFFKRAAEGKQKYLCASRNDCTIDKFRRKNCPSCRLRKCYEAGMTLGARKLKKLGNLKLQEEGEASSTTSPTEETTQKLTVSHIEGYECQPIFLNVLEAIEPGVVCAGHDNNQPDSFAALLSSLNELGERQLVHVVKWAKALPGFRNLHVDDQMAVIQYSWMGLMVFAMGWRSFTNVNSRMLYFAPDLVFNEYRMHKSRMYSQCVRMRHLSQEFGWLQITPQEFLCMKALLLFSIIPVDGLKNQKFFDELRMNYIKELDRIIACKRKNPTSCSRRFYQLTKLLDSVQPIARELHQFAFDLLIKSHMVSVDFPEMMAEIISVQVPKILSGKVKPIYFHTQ
Description: Briefly, cells (for example, LNCap cells) are harvested either in 2× sodium dodecyl sulfate (SDS) loading buffer or in radioimmunoprecipitation assay (RIPA) lysis buffer (see “Antibodies: A Laboratory Manual”, E. Harlow and D. Lane, Cold Spring Harbor Laboratory, 1988) containing 10 micrograms/milliliter of benzamidine, 10 micrograms/milliliter of trypsin inhibitor, and 1 millimolar of phenylmethylsulfonyl fluoride (PMSF). Total protein (40 micrograms/sample, or as desired) from cell lysate is separated on a SDS-PAGE gel. After separation, proteins are transferred from the gel to a nitrocellulose membrane following standard Western blot procedures. The membrane is blocked with a suitable blocking agent (such as 10% non-fat milk in phosphate-buffered saline supplemented with 0.1% Tween-20 (PBST)) to reduce non-specific binding overnight. The membrane is incubated with a suitable primary antibody specific for human AR (for example, anti-human AR from BD-PharMingen) at 4 degrees Celsius overnight or at room temperature for 2 hours. […] The membrane is rinsed with PBST, and a suitable visualization procedure is used to detect the secondary antibody (for example, horseradish peroxidase can be detected with a colorimetric substrate or by a chemiluminescent substrate such as that provided by the enhanced chemiluminescence (ECL Plus) kit from Amersham). […] Quantification of the protein signals can be carried out by densitometry, using appropriate software (ImageJ software from the National Institutes of Health).
LNCaP cells from the above described experiment were harvested at designated times, cell lysate was prepared for Western blot analysis as described previously. A color detection method was subsequently employed to examine AR and actin protein signals in the membranes, and the resultant protein signals were quantitated by densitometry. In FIG. 4B, normalized AR signals (as relative to actin protein) are reported, which were expressed as a percentage of baseline (Day 0) value. […]
Cells were then harvested and AR protein was quantified by Western blot.

androgen receptor (AR) [2] = target: T1, androgen receptor (AR); experiment: Specificity Western blot in LNCaP cell lysates, AR; assay type: cell-based; conditions: 1 or 5 micromolar, 24 hours, presence or absence of DHT
Protocol: Human prostate cancer LNCaP cells and T47D cells were plated at a density of 7×10^5 cells per 60 millimeter tissue culture dish in […] medium containing 10% FBS. The medium was changed to RPMI or DME medium containing 10% charcoal-stripped serum 24 hours later to deplete cellular androgens or estrogens. After another 24 hours, treatment with the test compounds began. The test dose of ASC-J9 was 1, and 5 and micromolar. LNCap cells also received dihydrotestosterone (DHT) (3 nanomolar). Control cells received a corresponding amount of the vehicle, dimethylsulfoxide (DMSO) (<0.04%) for an equivalent exposure time. Cells were incubated with ASC-J9 for 24 hours, and were lysed in 250 microliters of 1×SDS/PAGE loading buffer. Approximately 40 micrograms of total cellular protein was loaded in each lane of a pre-cast gel (NuPAGE, Invitrogen). Protein separation and transfer were performed following the manufacturer's instructions.
For the LNCaP cell lysates, androgen receptor (AR) protein was visualized by incubating the resultant membranes with an anti-AR antibody (BD-PharMingen), followed by chemiluminescence detection (ECL Plus, Amersham). […] The resultant protein signals were quantified using densitometry and NIH ImageJ software.

skin wounds = experiment: Skin wound healing in Balb/c mice; assay type: in vivo; conditions: cream 25 uM twice per day
Protocol: The ability of ASC-J9 to hasten wound healing in an animal model was tested using Balb/c mice. Using a skin puncher, wounds were created near the back of the neck region on retired male breeder Balb/c mice. Mice were treated with either an ASC-J9 cream (25 uM) or a vehicle control cream twice per day topically at the wound site.

acne-affected skin = experiment: Topical treatment of acne in human volunteers; assay type: in vivo
Protocol: In this example, human subjects were successfully treated for acne by topical administration of a cream containing the compound ASC-J15 or ASC-J9, which were shown in the previous examples to ameliorate the effects of the androgen receptor-activated pathway, specifically by inducing degradation of the androgen receptor. A basic carrier formulation was prepared by mixing two solutions: (1) a water-based solution containing aristoflex avc, Osmocide, Tween 20, and water; and (2) an oil-based solution containing isopropyl myristate, coconut dienthanolamine, ethylparaben, isobutylparaben, methylparaben, and propylparaben. […]
Male and female human volunteers ranging in age from 15 years to 52 years were treated by topical application of the test compounds to the acne-affected skin. Subjects were asked to apply the cream to the acne-affected areas twice a day (once in the morning and once in the evening). […] The results are given in Table 2, and a representative result (photo pictures) from one volunteer is depicted in FIG. 14. FIG. 14A depicts the volunteer's forehead and FIG. 14B depicts the volunteer's back.

## COc1ccc(C=CC(=O)C=C(O)C=Cc2ccc(OC)c(OC)c2)cc1OC [ASC-J9, 5-hydroxy-1,7-bis(3,4-dimethoxyphenyl)-1,4,6-heptatrien-3-one]
LNCaP cells; 1 nM DHT, 5 days
  LNCaP cell growth in the presence of DHT: good potency to decrease LNCaP cell growth
LNCaP cells; end of 5-day incubation
  viable cells: only a minimal number of viable cells
LNCaP cells; without DHT, starting from Day 2, vs vehicle control
  cell number per well: marked decrease in cell number
Androgen receptor (AR) [1]; 5 μM, continuous incubation
  time at which AR reduction was first observed: 2 days
Androgen receptor (AR) [1]; 5 μM, end of 5-day incubation
  AR remaining, normalized AR signal as percentage of baseline (Day 0): ~10%
Androgen receptor (AR) [1]; 48 hours, Western blot (FIG. 7B)
  AR protein, ARD enhancer compared with conventional anti-androgens: decreased AR protein
Androgen receptor (AR) [2]
  cellular concentration of AR: significantly decreased
Skin wounds; day 5, vs vehicle
  wound size: smaller wound size
Skin wounds; day 10
  wound healing: completely healed
acne-affected skin; topical cream 1 micromolar, one line per subject (age, sex, frequency in Table 2)
  Recovery Time: 2 weeks and 1 week weeks
acne-affected skin; topical cream 2.5 micromolar, twice a day, subject 24
  Recovery Time: 1 week
acne-affected skin; topical, 2.5 micromolar forehead (FIG. 14A), 625 μM back (FIG. 14B)
  skin condition of acne-affected male volunteers (photographs): visible improvement to skin condition
